Consider 32 molecules from paper PMC3409642 (Pharmaceutical research, 2012).

In general, Km refers to the concentration of substrate that gives half-maximal velocity. Usually Vmax stands for the top rate of the reaction or transport when substrate is in excess.

Where two headings read alike, the source gives them in different places.

In series [1] the target is T1, UGT1A9 (Homo sapiens, UniProt O60656).
T1 sequence (O60656 26-530): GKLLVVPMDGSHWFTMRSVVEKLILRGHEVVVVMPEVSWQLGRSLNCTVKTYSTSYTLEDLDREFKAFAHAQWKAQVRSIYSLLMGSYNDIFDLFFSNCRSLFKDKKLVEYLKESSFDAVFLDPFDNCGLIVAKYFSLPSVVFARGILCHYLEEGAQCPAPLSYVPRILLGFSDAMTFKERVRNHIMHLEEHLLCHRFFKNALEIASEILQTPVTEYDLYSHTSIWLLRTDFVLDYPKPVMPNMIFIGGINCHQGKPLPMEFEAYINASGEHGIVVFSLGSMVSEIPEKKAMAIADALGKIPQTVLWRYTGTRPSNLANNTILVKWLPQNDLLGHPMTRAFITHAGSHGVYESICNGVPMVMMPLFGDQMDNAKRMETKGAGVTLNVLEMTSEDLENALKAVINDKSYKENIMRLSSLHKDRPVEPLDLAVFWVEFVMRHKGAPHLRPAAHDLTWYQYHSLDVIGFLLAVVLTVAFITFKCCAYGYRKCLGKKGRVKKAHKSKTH
Particulars: for Log (CLint) (Actual): recombinant enzyme.

For series [2], the target named is T1, UGT1A9. The series can be described thus: in vitro.
In series [3] the target is T1, UGT1A9. Kind of series: Kinetic profiling of glucuronidation by expressed human UGT1A9. Conditions: for Log (CLint) (Actual): log of experimental CLint (μl/mg/min); for Vmax: pH 7.4.
Substrate in series [4]: CN(C)CCc1c[nH]c2cccc(O)c12
Kind of series: not read. Particulars: pH 7.4; 37.0 °C.

Substrate in series [5]: Oc1ccc(-c2ccccc2)cc1
The series can be described thus: not read. Particulars: pH 7.4; 37.0 °C.

Substrate in series [6]: Cc1ccc2oc(=O)cc(O)c2c1
The series can be described thus: not read. Particulars: pH 7.4; 37.0 °C.

Substrate in series [7]: C=CCc1ccc(O)c(OC)c1
The series can be described thus: not read. Conditions: pH 7.4; 37.0 °C.

Substrate in series [8]: COC(=O)c1ccc(O)cc1
The series can be described thus: not read. Conditions: pH 7.4; 37.0 °C.

Take `C=CCc1ccc(O)c(OC)c1` [compound 131, Eugenol]: the “Log (CLint) (Actual)” value on UGT1A9 [1] (human, pH 7.4) is 1.60.
Regarding `CC(C)(c1ccc(O)cc1)c1ccc(O)cc1` [compound 135, Bisphenol A], the “Log (CLint) (Actual)” value at UGT1A9 [1] (human, pH 7.4) came to 1.68.
On the same count and under the same terms, under `COc1c(O)cc2oc(-c3ccccc3)cc(=O)c2c1O` [compound 57, OroxylinA] stands 2.94.
Take `O=c1cc(-c2cccc(O)c2)oc2cc(O)c(O)cc12` [compound 36, 6,7,3′-Trihydroxflavone]: the “CLint (Vmax/Km)” value on UGT1A9 [1] amounted to 775 µL/min/mg. Besides, the “Log (CLint) (Actual)” value at UGT1A9 [1] (human) worked out at 2.89. For the same molecule, the Km at UGT1A9 [1] (pH 7.4) came to 3.01 µM.
As to `O=C1c2ccc(O)cc2OCC1c1ccc(O)cc1` (stereo not shown) [compound 102, Dihydrodaidzein], on UGT1A9 [1], the “CLint (Vmax/Km)” value was 8.1 µL/min/mg. Further, the “Log (CLint) (Actual)” value at UGT1A9 [1] (human) is 0.91. The Km at UGT1A9 [1] (pH 7.4) was determined as 77.7 µM.
In the case of `COc1ccc(-c2coc3cc(O)cc(O)c3c2=O)cc1` [compound 100, Biochanin A], the “CLint (Vmax/Km)” value on UGT1A9 [1] amounted to 335 µL/min/mg. Also, on UGT1A9 [1] (human), the “Log (CLint) (Actual)” value worked out at 2.53. Also, the Km on UGT1A9 [1] (pH 7.4) came out at 1.13 µM.
Regarding `O=c1c(O)c(-c2ccc(O)cc2)oc2ccccc12` [compound 64, 3,4′-Dihydroxyfavone], the “CLint (Vmax/Km)” value at UGT1A9 [1] was 14000 µL/min/mg. In addition, the “Log (CLint) (Actual)” value on UGT1A9 [1] (human) is listed as 4.14. The Km on UGT1A9 [1] (pH 7.4) came to 0.13 µM.
With `Cc1ccc(O)cc1` [compound 119, 4-Methylphenol], the “Log (CLint) (Actual)” value at UGT1A9 [1] (human, pH 7.4) is listed as 1.39.
On to `CCCCc1ccc(O)cc1` [compound 110, 4-n-Butylphenol], for which the “Log (CLint) (Actual)” value on UGT1A9 [1] (human, pH 7.4) was determined as 1.18. For the same molecule, at UGT1A9 [2] (pH 7.4, Km), the Km was found to be 43.1 µM.
As to `CCC(C)c1ccc(O)cc1` (stereo not shown) [compound 127, 4-sec-Butylphenol], the “Log (CLint) (Actual)” value at UGT1A9 [3] is reported as 1.57. Moreover, on UGT1A9 [1] (human, pH 7.4), the “CLint (Vmax/Km)” value turned out to be 37 µL/min/mg. Besides, on UGT1A9 [2] (pH 7.4, Km), the Km is 87.5 µM.
For the molecule `CCCOC(=O)c1ccc(O)cc1` [compound 134, Propyl-4-hydroxybenzoate], on UGT1A9 [1] (human, pH 7.4), the “Log (CLint) (Actual)” value was 1.48.
For `Cc1cc(O)c2c(c1)C(=O)c1cc(O)cc(O)c1C2=O` [compound 18, Emodin], at UGT1A9 [1] (human, pH 7.4), the “CLint (Vmax/Km)” value was determined as 1020 µL/min/mg and the “Log (CLint) (Actual)” value came to 3.01. Moreover, the Km on UGT1A9 [2] (pH 7.4, Km) worked out at 2.87 µM.
On to `COc1cc(/C=C/C(=O)O)ccc1O` [compound 95, Ferulic Acid], for which the Vmax on UGT1A9 [3] was determined as 372 pmol/mg/min. Besides, the “CLint (Vmax/Km)” value on UGT1A9 [1] came to 0.4 µL/min/mg. Also, the “Log (CLint) (Actual)” value at UGT1A9 [1] (human) is listed as 0.30. The Km at UGT1A9 [1] (pH 7.4) worked out at 884 µM.
For the molecule `O=c1c(O)c(-c2ccccc2)oc2cc(O)cc(O)c12` [85.a, Galangin], the “Log (CLint) (Actual)” value at UGT1A9 [3] stood at 4.04; at UGT1A9 [3] (listed as 85.b) it was 3.68. Also, the Km at UGT1A9 [2] (pH 7.4, Km) turned out to be 0.68 µM.
Consider `O=c1cc(-c2ccccc2)oc2cccc(O)c12` [compound 34, 5-Hydroxyflavone], for which the “Log (CLint) (Actual)” value at UGT1A9 [1] (human, pH 7.4) was found to be 2.09.
Still for that read-out and setting: the figure for `O=c1cc(-c2ccc(O)cc2)oc2cc(O)cc(O)c12` [compound 50, Apigenin] is 3.23; for `COc1cc(-c2oc3cc(O)cc(O)c3c(=O)c2O)ccc1O` [compound 87, Isorhamnetin] it is 4.59.
As to `O=c1c(-c2ccc(O)cc2)coc2cc(O)ccc12` [compound 101, Daidzein], at UGT1A9 [1] (human, pH 7.4), the “CLint (Vmax/Km)” value is 77 µL/min/mg and the “Log (CLint) (Actual)” value is listed as 1.89.
Turning to `Oc1ccc(N=Nc2ccccc2)cc1` [compound 124, 4-Phenylazophenol], the “CLint (Vmax/Km)” value at UGT1A9 [1] amounted to 14 µL/min/mg. Besides, the “Log (CLint) (Actual)” value on UGT1A9 [1] (human) is recorded as 1.15. Also, the Km at UGT1A9 [1] (pH 7.4) was 82.5 µM.
For `Cc1cc(O)cc2oc(-c3ccccc3)cc(=O)c12` [compound 48, 7-Hydoxy-5-methylflavone], the “CLint (Vmax/Km)” value at UGT1A9 [1] was found to be 5712 µL/min/mg. At UGT1A9 [1] (human), the “Log (CLint) (Actual)” value turned out to be 3.76. The Km on UGT1A9 [1] (pH 7.4) is 0.94 µM.
As to `CC(C)c1ccc(O)cc1` [compound 117, 4-Isopropylphenol], the “Log (CLint) (Actual)” value at UGT1A9 [3] is 1.78. In addition, the Km at UGT1A9 [2] (pH 7.4) was 36.4 µM.
In the case of `Oc1cccc2ccccc12` [compound 21, Naphthol], at UGT1A9 [3], the Vmax was 72.1 pmol/mg/min. Further, on UGT1A9 [1] (human, pH 7.4), the “CLint (Vmax/Km)” value was found to be 288 µL/min/mg and the “Log (CLint) (Actual)” value amounted to 2.46.
As to `CCc1c2c(nc3ccc(O)cc13)-c1cc3c(c(=O)n1C2)COC(=O)[C@]3(O)CC` [compound 144, SN-38], the “CLint (Vmax/Km)” value at UGT1A9 [1] stood at 3 µL/min/mg. Besides, the “Log (CLint) (Actual)” value at UGT1A9 [1] (human) was 0.44.
With `C[C@]12CC[C@@H]3c4ccc(O)cc4CC[C@H]3[C@@H]1CC[C@@H]2O` [estradiol, reference compound], on UGT1A9 [1], the “glucuronide metabolite formation on incubation with UGT1A9 (non-substrate)” value is on record as “no metabolite can be detected”.
As to `O=c1c(-c2ccc(O)cc2)coc2cc(O)cc(O)c12` [compound 105, Genistein], on UGT1A9 [3], the “Log (CLint) (Actual)” value worked out at 2.79. Also, the “CLint (Vmax/Km)” value on UGT1A9 [1] (human, pH 7.4) amounted to 617 µL/min/mg. Further, the Km on UGT1A9 [2] (pH 7.4) was determined as 2.09 µM.
Consider `O=c1cc(-c2ccccc2)oc2cc(O)c(O)c(O)c12` [compound 51, Baicalein], for which the “Log (CLint) (Actual)” value on UGT1A9 [1] (human, pH 7.4) was 3.88. Moreover, the Km on UGT1A9 [2] (pH 7.4, Km) amounted to 0.7 µM.
For `O=c1cc(-c2ccccc2)oc2cc(O)cc(O)c12` [compound 52, Chrysin], the “Log (CLint) (Actual)” value at UGT1A9 [1] (human, pH 7.4) came out at 3.96.
For `O=c1c(O)c(-c2ccccc2)oc2ccc(O)cc12` [compound 65, 3,6-Dihydroxyfavone], on UGT1A9 [1], the “CLint (Vmax/Km)” value is 21000 µL/min/mg. Moreover, the “Log (CLint) (Actual)” value at UGT1A9 [1] (human) was 4.32. The Km on UGT1A9 [1] (pH 7.4) came out at 0.62 µM.
Consider `CCOC(=O)c1ccc(O)cc1` [compound 130, Ethyl-4-hydroxybenzoate], for which, at UGT1A9 [1] (human, pH 7.4), the “Log (CLint) (Actual)” value amounted to 1.61.
The same measure, in the same setting: the figure for `O=C(/C=C/c1ccccc1)c1ccccc1O` [compound 5, 2′-Hydroxychalcone] is 3.12; for `COC(=O)c1ccc(O)cc1` [compound 132, Methyl-4-hydroxybenzoate] it is 1.73.

B1: human UGT1A9 (Homo sapiens) (protein)
chain: GKLLVVPMDGSHWFTMRSVVEKLILRGHEVVVVMPEVSWQLGRSLNCTVKTYSTSYTLEDLDREFKAFAHAQWKAQVRSIYSLLMGSYNDIFDLFFSNCRSLFKDKKLVEYLKESSFDAVFLDPFDNCGLIVAKYFSLPSVVFARGILCHYLEEGAQCPAPLSYVPRILLGFSDAMTFKERVRNHIMHLEEHLLCHRFFKNALEIASEILQTPVTEYDLYSHTSIWLLRTDFVLDYPKPVMPNMIFIGGINCHQGKPLPMEFEAYINASGEHGIVVFSLGSMVSEIPEKKAMAIADALGKIPQTVLWRYTGTRPSNLANNTILVKWLPQNDLLGHPMTRAFITHAGSHGVYESICNGVPMVMMPLFGDQMDNAKRMETKGAGVTLNVLEMTSEDLENALKAVINDKSYKENIMRLSSLHKDRPVEPLDLAVFWVEFVMRHKGAPHLRPAAHDLTWYQYHSLDVIGFLLAVVLTVAFITFKCCAYGYRKCLGKKGRVKKAHKSKTH
In the case of B1, the Km in the series “not read [4]” was determined as 748 µM; in “not read [5]” it was 56.2 µM; in “not read [6]”, 57.8 µM; in the series “not read [7]”, 25 µM; in “not read [8]”, 101 µM. Moreover, the Vmax in the series “not read [4]” came to 0.00598 µmol/min/mg; in “not read [5]”, 0.00124 µmol/min/mg; in “not read [6]” it was 0.000225 µmol/min/mg; in “not read [7]”, 0.001 µmol/min/mg. The Vmax/Km is 8 µL/min/mg in the series “not read [4]”, 22 µL/min/mg in the series “not read [5]”, 4 µL/min/mg in “not read [6]” and 40 µL/min/mg in “not read [7]”.
